Test results from PMC12731105, “Design and Synthesis of New Quinoxaline Analogs to Regenerate Sensory Auditory Hair Cells” (Cells, 2025).

Experiments:
[1] = test system: Neuro-2A; test: TACS MTT cell proliferation / metabolic activity assay in Neuro-2A; assay type: cell-based, mouse; conditions: for Increase in MTT absorbance compared to DMSO controls and untreated cells: low-dose exposure (≤5 μM); for MTT absorbance change at higher concentrations: ≥5 μM
Procedure: (§1) HEI-OC1 cells derived from the mouse OC (kindly provided by Dr. F. Kalinec) were cultured under permissive conditions (33 °C, 10% CO2) as described in [22]. Additionally, we assessed the activity of Qx-derived compounds in the mouse neuroblastoma cell line, Neuro-2A, and the human fibrosarcoma HT-1080 (ATCC, Manassas, VA, USA) following the standard cell culture guidelines provided by the vendor.
(§2) In vitro cell proliferation effects of all ten initial compounds (Figure 1A,B) were tested on HEI-OC1, Neuro-2A and HT-1080 cells by TACS® 3-(4,5-dimethylthiazol-2-yl)-2,5-diphenyltetrazolium bromide (MTT) Cell Proliferation Assay (R&D Systems, Minneapolis, MN, USA, 4890-025-K), following the manufacturer’s protocol. Absorbance was measured with SpectraMax® M Series Multi-Mode Microplate Reader with Soft Max Pro 7.2 GxP Software (Molecular Devices, Sunnyvale, CA, USA), and the average OD in control cells was taken as 100% of viability. Upon selecting the most viable compounds (Qx-294 and Qx-301), we proceeded with in vivo experiments. For zebrafish treatment, animals were incubated for varied times with different concentrations (50, 100, 150, 200, 250, and 300 μg/mL) of Qx-294 or Qx-301 diluted in swimming (E3) media or administered via IP injections. Mice treatment followed the same procedures as described in [18]. Following treatment, animals or tissue samples were incubated in Click-it EdU or Click-it Plus TUNEL kits (Thermo Scientific, Waltham, MA, USA), following the manufacturer’s instructions to label proliferating and apoptotic cells, respectively.

[2] = test system: HEI-OC1 cells; test: TACS MTT cell proliferation / metabolic activity assay in HEI-OC1; assay type: cell-based, mouse; conditions: for Proliferative effect and metabolic activity at low concentrations: 0.1 μM to 5 μM, 24 h incubation, also stated for Neuro-2A and HT-1080; for Proliferative effect vs Qx-70 and untreated cells: HEI-OC1, TACS MTT; for Metabolic and proliferative activities at high concentrations: concentrations higher than 5 μM, across all three lines
Procedure: as §1, §2

[3] = test system: HT-1080; test: TACS MTT cell proliferation / metabolic activity assay in HT-1080; assay type: cell-based, human; conditions: for Increase in MTT absorbance compared to DMSO controls and untreated cells: HT-1080, low-dose exposure (≤5 μM); for MTT absorbance change at higher concentrations: HT-1080, ≥5 μM
Procedure: as §1, §2

[4] = test system: zebrafish neuromast cells; test: TUNEL assay in zebrafish neuromasts; assay type: in vivo, zebrafish (Danio rerio); conditions: 400 μM, 6 h
Procedure: Absorbance was measured with SpectraMax® M Series Multi-Mode Microplate Reader with Soft Max Pro 7.2 GxP Software (Molecular Devices, Sunnyvale, CA, USA), and the average OD in control cells was taken as 100% of viability. […] Mice treatment followed the same procedures as described in [18]. Following treatment, animals or tissue samples were incubated in Click-it EdU or Click-it Plus TUNEL kits (Thermo Scientific, Waltham, MA, USA), following the manufacturer’s instructions to label proliferating and apoptotic cells, respectively.

Compound	Increase in MTT absorbance compared to DMSO controls and untreated cells [1] [%]	MTT absorbance change at higher concentrations [1]	Proliferative effect and metabolic activity at low concentrations [2]	Proliferative effect vs Qx-70 and untreated cells [2]	Metabolic and proliferative activities at high concentrations [2]	Increase in MTT absorbance compared to DMSO controls and untreated cells [3] [%]	MTT absorbance change at higher concentrations [3]	Cell death (TUNEL) in neuromasts, positive control [4]
CCNc1cnc2ccccc2n1 [Qx-292, 2-(ethylamine)-quinoxaline]	≤ 9	moderate reductions	high proliferative effect and increased metabolic activity	significant and reproducible proliferative effects greater than those of Qx-70 and the untreated cells	declined	≤ 9	moderate reductions	–
c1ccc2nc(N3CCSCC3)cnc2c1 [Qx-295, 2-(thiomorpholine)-quinoxaline]	≤ 9	moderate reductions	high proliferative effect and increased metabolic activity	significant and reproducible proliferative effects greater than those of Qx-70 and the untreated cells	declined	≤ 9	moderate reductions	–
CC(=O)N1CCN(c2cnc3ccccc3n2)CC1 [Qx-296, 2-(4-acetylpiperazine)-quinoxaline]	≤ 9	moderate reductions	high proliferative effect and increased metabolic activity	significant and reproducible proliferative effects greater than those of Qx-70 and the untreated cells	declined	≤ 9	moderate reductions	–
N.N.[Cl][Pt][Cl] [cisplatin, reference compound]	–	–	–	–	–	–	–	extensive cell death
